Test results: patent US12545658B2, “Pyridine derivatives as calcium-activated chloride channel modulators” (TMEM16A LIMITED, priority 2019, dated 2026)

Biological target: T1, human TMEM16A (TMEM16Aabc variant) (Homo sapiens, UniProt Q5XXA6)
T1 construct: human TMEM16A (TMEM16Aabc variant)
T1 sequence (Q5XXA6 1-986): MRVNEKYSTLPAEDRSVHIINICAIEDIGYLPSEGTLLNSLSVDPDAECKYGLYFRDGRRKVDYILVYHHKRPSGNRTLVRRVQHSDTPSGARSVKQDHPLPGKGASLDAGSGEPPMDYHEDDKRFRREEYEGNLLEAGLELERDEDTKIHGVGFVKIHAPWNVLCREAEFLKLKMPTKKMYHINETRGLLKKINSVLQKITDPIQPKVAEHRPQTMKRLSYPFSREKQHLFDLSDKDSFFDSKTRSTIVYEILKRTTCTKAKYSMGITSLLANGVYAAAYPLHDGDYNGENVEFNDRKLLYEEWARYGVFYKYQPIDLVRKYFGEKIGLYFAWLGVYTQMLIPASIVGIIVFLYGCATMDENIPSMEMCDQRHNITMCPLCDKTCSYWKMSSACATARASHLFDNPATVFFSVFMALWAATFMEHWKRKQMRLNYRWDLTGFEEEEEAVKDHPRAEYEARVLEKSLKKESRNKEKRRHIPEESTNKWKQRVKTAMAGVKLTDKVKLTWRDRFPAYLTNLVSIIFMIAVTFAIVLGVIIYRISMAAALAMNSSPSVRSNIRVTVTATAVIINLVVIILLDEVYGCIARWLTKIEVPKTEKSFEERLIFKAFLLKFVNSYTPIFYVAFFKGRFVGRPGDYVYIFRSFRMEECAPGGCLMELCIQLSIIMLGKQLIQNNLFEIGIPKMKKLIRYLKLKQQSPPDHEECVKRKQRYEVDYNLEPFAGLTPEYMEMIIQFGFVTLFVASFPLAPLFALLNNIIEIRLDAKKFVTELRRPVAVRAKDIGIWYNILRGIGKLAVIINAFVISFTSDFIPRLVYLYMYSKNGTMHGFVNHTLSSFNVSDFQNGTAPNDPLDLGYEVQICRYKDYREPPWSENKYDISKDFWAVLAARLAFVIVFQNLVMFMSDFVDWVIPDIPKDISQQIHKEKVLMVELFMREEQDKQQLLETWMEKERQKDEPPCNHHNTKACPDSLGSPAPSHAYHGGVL
Assay: Automated whole-cell patch clamp (QPatch) TMEM16A potentiator assay in FRT cells stably expressing human TMEM16A
Type: cell-based
Conditions: for QPatch TMEM16A % Potentiation @ 370 nM: 370 nM test compound; for QPatch TMEM16A % Potentiation @ 370 nM / QPatch TMEM16A % Potentation @ 3.3 μM: percentage increase of baseline TMEM16A current; for QPatch TMEM16A % Potentation @ 3.3 μM: 3.3 μM test compound; for EC50: FRT-TMEM16A cells, whole-cell patch clamp, peak current at +70 mV, intracellular calcium at EC20; for maximum potentiation of TMEM16A compared with Compound B: versus comparator Compound B; for EC50 compared with Compound B: indole compounds versus comparator Compound B
Experimental: Fisher rat thyroid (FRT) cells stably expressing human TMEM16A (TMEM16Aabc variant; Dr Luis Galietta, Insituto Giannina, Italy) were cultured in T-75 flasks in Hams F-12 media with Coon's modification (Sigma) supplemented with 10% (v/v) foetal bovine serum, penicillin-streptomycin (10,000 U/mL/10000 μg/mL), G-418 (750 μg/mL), L-glutamine (2 mM) and sodium bicarbonate solution (7.5% v/v). At ˜90% confluence cells were harvested for experiments by detachment with a 2:1 (v/v) mixture of Detachin (BMS Biotechnology) and 0.25% (w/v) trypsin-EDTA.
FRT-TMEM16A cells were whole-cell patch clamped using an automated planar patch clamp system (Qpatch, Sophion). Briefly, once high resistance (GOhm) seals were established between the cells and the planar recording array the patch was ruptured using suction pulses to establish the whole-cell recording configuration of the patch clamp technique. The assay employed the following solutions (all reagents Sigma): Intracellular solution (mM): N-methyl-D-glucamine 130, CaCl2 18.2, MgCl2 1, HEPES 10, EGTA 10, BAPTA 20, Mg-ATP 2, pH 7.25, 325 mOsm with sucrose.
Extracellular solution (mM): N-methyl-D-glucamine 130, CaCl2 2, MgCl2 1, HEPES 10, pH 7.3, 320 mOsm with sucrose.
The intracellular solution buffers intracellular calcium at levels required to give ˜20% activation of the maximal TMEM16A mediated current (EC20 for calcium ions). Cells were voltage clamped at a holding potential of −70 mV and a combined voltage step (to +70 mV)/ramp (−90 my to +90 mV) was applied at 0.05 Hz. After a period of current stabilisation test compounds, solubilised in 100% (v/v) DMSO and subsequently diluted into extracellular solution, were applied to generate a cumulative concentration response curve. Each concentration of test compound was incubated for 5 minutes before addition of the next concentration. After the final concentration was tested a supramaximal concentration of either a known active positive modulator or the TMEM16A inhibitor, CaCCinhA01 (Del La Fuente et al, 2008) was added to define the upper and lower limits of the assay.
Compound activity was quantified by measuring the increase in current upon compound addition and expressing this as a percentage increase of baseline TMEM16A current level.
In FIG. 1, IBL equals baseline current, I[#1] equals the peak current during test compound concentration 1 incubation period and so on.
Peak TMEM16A current at +70 mV was plotted as a function of time over the assay period. Baseline current (IBL) was measured after a period of stabilisation. The increase in current for each compound addition was determined by taking the peak current during the incubation period and subtracting the current from the previous recording period and then expressing this as a percentage of the baseline current (% potentiation). For test compound concentration 1 in FIG. 1 this is: (I[#1]−IBL/IBL)×100 For each additional concentration tested the increase in current was determined by subtracting the current from the previous incubation period and normalising the baseline value—for test concentration 2 in FIG. 1 this is: (I[#2]−I[#1])/IBL)×100 The values for each test concentration were plotted as a cumulative function of concentration eg. for test concentration two this would be the sum of the peak changes measured during concentration one plus concentration two.

SMILES	QPatch TMEM16A % Potentiation @ 370 nM [%]	QPatch TMEM16A % Potentation @ 3.3 μM [%]	EC50 [nM]	maximum potentiation of TMEM16A compared with Compound B	EC50 compared with Compound B
CC(C)(C)NC(=O)c1cc(NC(=O)Cc2cc(Cl)c3cn[nH]c3c2)ccn1 [Example 7.2, N-tert-Butyl-4-[[2-(4-chloro-1H-indazol-6-yl)acetyl]amino]pyridine-2-carboxamide]	102	142	140	–	–
O=C(Cc1ccc2cn[nH]c2c1)Nc1ccnc(C(=O)NC2(C(F)(F)F)CCC2)c1 [Example 5.1, 4-[[2-(1H-Indazol-6-yl)acetyl]amino]-N-[1-(trifluoromethyl)cyclobutyl]pyridine-2-carboxamide]	76	110	150	–	–
C#CC(C)(C)NC(=O)c1cc(NC(=O)Cc2ccc3cn[nH]c3c2)ccn1 [Example 3, N-(1,1-Dimethylprop-2-ynyl)-4-[[2-(1H-indazol-6-yl)acetyl]amino]pyridine-2-carboxamide]	68	96	20	–	–
O=C(Cc1ccc2cc[nH]c2c1)Nc1ccnc(C(=O)NC2(C(F)(F)F)CC2)c1 [Example 1.1, 4-[[2-(1H-indol-6-yl)acetyl]amino]-N-[1-(trifluoromethyl)cyclopropyl]pyridine-2-carboxamide]	145	173	70	improved maximum potentiation of TMEM16A	–
O=C(Cc1ccc2cn[nH]c2c1)Nc1ccnc(C(=O)NC2(C(F)F)CC2)c1 [Example 11.4, N-[1-(Difluoromethyl)cyclopropyl]-4-[[2-(1H-indazol-6-yl)acetyl]amino] pyridine-2-carboxamide]	85	132	210	–	–
O=C(Cc1ccc2c(C(F)(F)F)n[nH]c2c1)Nc1ccnc(C(=O)NC2(C(F)(F)F)CC2)c1 [Example 8.1, N-[1-(Trifluoromethyl)cyclopropyl]-4-[[2-[3-(trifluoromethyl)-1H-indazol-6-yl]acetyl]amino]pyridine-2-carboxamide]	97	267	600	–	–
N#CC1(NC(=O)c2cc(NC(=O)Cc3ccc4cc[nH]c4c3)ccn2)CCOCC1 [Example 13.2, N-(4-Cyanotetrahydropyran-4-yl)-4-[[2-(1H-indol-6-yl)acetyl]amino] pyridine-2-carboxamide]	98	134	130	improved maximum potentiation of TMEM16A	lower EC50 values than Compound B
O=C(Cc1ccc2cn[nH]c2c1)Nc1ccnc(C(=O)NC2(C(F)(F)F)CC2)c1 [Example 4.2, 4-[[2-(1H-Indazol-6-yl)acetyl]amino]-N-[1-(trifluoromethyl)cyclopropyl]pyridine-2-carboxamide]	112	155	100	–	–
CC(C)(C)NC(=O)c1cc(NC(=O)Cc2cc(F)c3cn[nH]c3c2)ccn1 [Example 7, N-tert-Butyl-4-[[2-(4-fluoro-1H-indazol-6-yl)acetyl]amino]pyridine-2-carboxamide]	88	95	70	–	–
CC(C)c1n[nH]c2cc(CC(=O)Nc3ccnc(C(=O)NC(C)(C)C)c3)ccc12 [Example 9, N-tert-Butyl-4-[[2-(3-isopropyl-1H-indazol-6-yl)acetyl]amino]pyridine-2-carboxamide]	113	200	280	–	–
O=C(Cc1ccc2cn[nH]c2c1)Nc1ccnc(C(=O)NC23CC(F)(C2)C3)c1 [Example 11.5, N-(3-Fluoro-1-bicyclo[1.1.1]pentanyl)-4-[[2-(1H-indazol-6-yl)acetyl]amino]pyridine-2-carboxamide]	41	61	140	–	–
CC(C)(NC(=O)c1cc(NC(=O)Cc2ccc3cn[nH]c3c2)ccn1)C(F)(F)F [Example 4.1, 4-[[2-(1H-Indazol-6-yl)acetyl]amino]-N-(2,2,2-trifluoro-1,1-dimethyl-ethyl)pyridine-2-carboxamide]	96	118	90	–	–
C#CC(C)(C)NC(=O)c1cc(NC(=O)Cc2ccc3cc[nH]c3c2)ccn1 [Example 1, N-(1,1-Dimethylprop-2-ynyl)-4-[[2-(1H-indol-6-yl)acetyl]amino]pyridine-2-carboxamide]	50	38	20	–	lower EC50 values than Compound B
